ChEMBL document CHEMBL6087414, “Discovery of 4-(4-(3-(1-(2-(piperidin-1-yl)ethyl)-1H-benzo[d]imidazole-2-yl)isoxazol-5-yl)phenyl)morpholine as a novel c-Myc inhibitor against lung cancer in vitro and in vivo” (Eur J Med Chem, 2025)

Columns and labels:
NCI-H1299 = assay: Cytotoxicity against human NCI-H1299 cells assessed as inhibition of cell viability incubated for 48 hrs by CCK8 assay; type: functional, cell-based; details: NCI-H1299, 48 h
A549 = assay: Cytotoxicity against human A549 cells assessed as inhibition of cell viability incubated for 48 hrs by CCK8 assay; type: functional, cell-based; details: A549, 48 h

| Structure (SMILES) | IC50 (NCI-H1299) [µM] | IC50 (A549) [µM] |
| --- | --- | --- |
| CN(C)c1ccc(-c2cc(-c3nc4ccccc4n3CCCN3CCCCC3)no2)cc1 | 16.9 | 11.6 |
| Cc1ccc(C(=O)n2c(-c3cc(-c4ccc(N5CCOCC5)cc4)on3)nc3ccccc32)cc1 | 22.2 | 19.2 |
| c1ccc2c(c1)nc(-c1cc(-c3ccc(N4CCCCCC4)cc3)on1)n2CCN1CCCCCC1 | 26.4 | 14.8 |
| c1ccc2c(c1)nc(-c1cc(-c3ccc(N4CCCCC4)cc3)on1)n2CCN1CCCCC1 | 21.5 | 9.23 |
| c1ccc2c(c1)nc(-c1cc(-c3ccc(N4CCCCCC4)cc3)on1)n2CCN1CCCCC1 | 21.8 | 10.9 |
| Cc1ccc(C(=O)n2c(-c3cc(-c4ccc(F)cc4)on3)nc3ccccc32)cc1 | 30.1 | > 40 |
| CCN(CC)CCCn1c(-c2cc(-c3ccc(N4CCOCC4)cc3)on2)nc2ccccc21 | 22.1 | 8.53 |
| CN(C)CCCn1c(-c2cc(-c3ccc(N4CCCCC4)cc3)on2)nc2ccccc21 | 15.4 | 6.04 |
| CN(C)c1ccc(-c2cc(-c3nc4ccccc4n3CCCN3CCOCC3)no2)cc1 | 17 | 13.6 |
| c1ccc2c(c1)nc(-c1cc(-c3ccc(N4CCOCC4)cc3)on1)n2CCN1CCCCCC1 | 27.6 | 9.94 |
| c1ccc(Cn2c(-c3cc(-c4ccc(N5CCOCC5)cc4)on3)nc3ccccc32)cc1 | > 40 | > 40 |
| c1ccc2c(c1)nc(-c1cc(-c3ccc(N4CCOCC4)cc3)on1)n2CCN1CCOCC1 | 21 | 8.46 |
| c1ccc2c(c1)nc(-c1cc(-c3ccc(N4CCCCC4)cc3)on1)n2CCN1CCCC1 | 19 | 7.68 |
| CN(C)c1ccc(-c2cc(-c3nc4ccccc4n3CCN3CCCC3)no2)cc1 | 14.2 | 10.7 |
| CN(C)CCn1c(-c2cc(-c3ccc(N4CCOCC4)cc3)on2)nc2ccccc21 | 18.9 | 8.92 |
| c1ccc2c(c1)nc(-c1cc(-c3ccc(N4CCCCC4)cc3)on1)n2CCN1CCCCCC1 | 16.7 | 9.38 |
| c1ccc2c(c1)nc(-c1cc(-c3ccc(N4CCOCC4)cc3)on1)n2CCCN1CCCCC1 | 20.2 | 6.25 |
| CN(C)c1ccc(-c2cc(-c3nc4ccccc4n3CCN3CCOCC3)no2)cc1 | 17.7 | 12.7 |
| O=C(c1ccccc1)n1c(-c2cc(-c3ccc(F)cc3)on2)nc2ccccc21 | 23.9 | > 40 |
| CCN(CC)CCCn1c(-c2cc(-c3ccc(N4CCCCC4)cc3)on2)nc2ccccc21 | 18 | 7.41 |
| c1ccc2c(c1)nc(-c1cc(-c3ccc(N4CCCCCC4)cc3)on1)n2CCN1CCCC1 | 24.6 | 10.5 |
| c1ccc2c(c1)nc(-c1cc(-c3ccc(N4CCCCCC4)cc3)on1)n2CCCN1CCOCC1 | 22.3 | 20.6 |
